Values joined by “and” are separate entries in the source; they are usually repeats but may differ in a detail not shown here. Identical values can stand only once. “Also recorded” adds a separate entry of the source.
Tests used:
[1] = Renal toxicity, urinary output over 24 h after single IV dose; assay type: in vivo, rat; details: 24 h after single IV 10 mg/kg Dox or equimolar DoxQ
Procedure: The total urine volume excreted over 24 h post-dosing was compared to the total urine volume excreted over 24 h pre-dosing.

[2] = tested on: β-N-acetylglucosaminidase (NAG); test: Renal toxicity, β-N-acetylglucosaminidase (NAG) in rat urine after single IV dose; assay type: in vivo; details: after single IV 10 mg/kg Dox or equimolar DoxQ
Procedure: Urine samples from pharmacokinetics experiments were collected from metabolic cages at 0 h, 12 h, 24 h, and 48 h and stored at −20 °C until analysis. Concentrations of NAG urine samples were measured using an assay kit from ALPCO Diagnostics (Salem, NH, USA, cat. No. 73-1290050) on a Medica EasyRA automated clinical chemistry analyzer (Medica Corporation, Bedford, MA, USA).

[3] = Pharmacokinetic study after IV administration, rat serum and urine; details: for fe, fraction excreted unchanged in urine: administered compound intact in urine; for CLhepatic: n = 3, CLtot minus CLrenal
[4] = tested on: rat cardiac Troponin-I (cTnI); test: Cardiac toxicity, serum cardiac Troponin-I (cTnI) ELISA after single IV dose; assay type: in vivo; details: for cTnI concentrations in serum: 12, 24 and 48 h after single IV 10 mg/kg Dox or equimolar DoxQ
Procedure: Samples were centrifuged to obtain the serum and stored at −20 °C in a freezer until analysis. On the day of the analysis, cTnI concentrations were measured in serum samples following the manufacturer’s instructions. The area under the effect curve (AUEC) was calculated for cTnI concentrations at 12–48 h post-dosing using the trapezoidal rule by WinNonlin® software.

in vivo [5] = details: male, Sprague-Dawley, rat, serum, po, 10 mg/kg, F, Dox after PO Dox 10 mg/kg, n = 3
[6] = tested on: triple negative murine breast cancer cell line; set-up: method as in PMID 28462502; details: cited from earlier work
[7] = Predicted physicochemical properties (VCCLAB, MarvinSketch, GastroPlus); details: predicted values
Procedure: LogP and LogS values of DoxQ were predicted using an online computer software (VCCLAB, Virtual Computational Chemistry Laboratory). pKa, logP, logD at pH 7.4, intrinsic solubility, and solubility at pH 7.4 were calculated using MarvinSketch v. […] 9.0.0007 (Simulations Plus, Inc., Lancaster, CA, USA). […] The melting point of DoxQ was experimentally determined by MEL-TEMPII melting point apparatus from Laboratory Devices (Holliston, MA, USA).

[8] = Intestinal lymphatic delivery, mesenteric lymph duct cannulated rat model; assay type: in vivo, male Sprague–Dawley rats; details: over one hour after oral 10 mg/kg, n = 3
Excerpt: The intestinal transport of DoxQ via lymphatics was examined in vivo by two methods.
Six male Sprague–Dawley rats (~300 g) were obtained from Charles River Labs (Montreal, QC, Canada) and given food (Purina Rat Chow 5001) and water ad libitum in the animal facility for at least three days before use. On the day of surgical operation, rats were anesthetized by isoflurane and the abdominal hair was shaved. Rats were maintained under inhaled anesthesia on a warm surgical table. A ~2.5 cm abdominal midline skin incision was made and extended through the musculature using blunt dissection beginning the incision at a point just above the xyphoid cartilage and proceeding distally. […] The lymph duct was isolated from the surrounding connective tissue and a small incision was made with a bent 23 G needle in the ventral wall of the lymph. A catheter was inserted through the incision and secured by placing a small cellulose patch with a drop of Vetbond^TM over the point of insertion into the lymph duct. When a gradual and continuous flow of lymph was observed, an initial lymph sample was collected into a normal microtube. […] Thereafter, lymph samples were collected over one hour after dosing. The animals were euthanized after the last lymph sample collection.

CYP1B1 = tested on: CYP1B1; set-up: method as in PMID 28462502; details: expression and catalytic activity; cited from earlier work
in vivo [9] = details: male, Sprague-Dawley, rat, iv, 10 mg/kg
human cardiomyocytes = tested on: human cardiomyocytes; set-up: method as in PMID 28462502; details: cited from earlier work
[10] = tested on: P–gp-positive (MDCK–MDR) cells; set-up: method as in PMID 28462502; details: cited from earlier work
rat cardiomyocytes = tested on: rat cardiomyocytes; set-up: method as in PMID 28462502; details: cited from earlier work
CYP3A4 = tested on: CYP3A4; set-up: method as in PMID 28462502; details: in vitro; cited from earlier work
[11] = set-up: method as in PMID 28462502; details: in vitro; cited from earlier work
[12] = administered compound intact in rat serum, IV Dox 10 mg/kg or equimolar DoxQ, mean ± SEM
[13] = IV Dox 10 mg/kg or equimolar DoxQ
[14] = administered compound intact, IV Dox 10 mg/kg or equimolar DoxQ
[15] = male, Sprague-Dawley, rat, serum, iv, 10 mg/kg

COc1cccc2c1C(=O)c1c(O)c3c(c(O)c1C2=O)C[C@@](O)(C(=O)CO)C[C@@H]3O[C@H]1C[C@H](N)[C@H](O)[C@H](C)O1 [Dox, Doxorubicin]
Total urine volume over 24 h [1]: no significant difference
F, bioavailability (Dox after PO Dox 10 mg/kg, n = 3): 8.57 ± 0.71%
Cumulative amount of NAG excreted in urine [2]: higher cumulative amounts
Vss of Dox relative to Vss of DoxQ ([3]; IV, equimolar doses): ~ 80 fold
C0 [3, 12]: 24700 ± 14200 ng/mL
Clast [3, 12]: 120 ± 30 ng/mL
fe, fraction excreted unchanged in urine [3, 13]: ~ 11% and 10.73 ± 3.14%
CLhepatic [3, 14]: 39.2 ± 6 mL/min/kg
AUC(0-inf) [3, 15]: 4790 ± 1830 ng·h/mL
AUC(0-t) [3, 15]: 3970 ± 700 ng·h/mL
CL renal [3, 15]: 4.67 mL/min/kg
clearance [3, 15]: 43.8 mL/min/kg
half-life [3, 15]: 4.69 ± 0.8 h
k el [3, 15]: 4.44e-05 s⁻¹
C0 ([3]; male, Sprague-Dawley, rat, serum, iv, 10 mg/kg, C0, administered compound intact in rat serum, IV Dox 10 mg/kg or equimolar DoxQ, mean ± SEM): ~25000 ng/mL
Vd ([3]; male, Sprague-Dawley, rat, serum, iv, 10 mg/kg, Vss, administered compound intact, IV Dox 10 mg/kg or equimolar DoxQ, mean ± SEM): 6.35 ± 2.11 L/kg
cTnI concentrations in serum [4]: increase in cTnI
bioavailability (in vivo [5]): ~8.5%

COc1cccc2c1C(=O)c1c(O)c3c(c(O)c1C2=O)CC(O)(C(=O)CO)CC3OC1CC(NC(=O)CNC(=O)Oc2ccc(-c3oc4cc(O)cc(O)c4c(=O)c3O)cc2O)C(O)C(C)O1 (centres unmarked) [DoxQ]
Anti-cancer activity [6]: retained anti-cancer activity
LogP of DoxQ relative to Dox [7]: 3–5 fold
LogD7.4 of DoxQ relative to Dox ([7]; pH 7.4): 25 fold
Cumulative amount of Dox in mesenteric lymph fluid, compared to after Dox [8]: twice as high; also recorded: two-fold higher
Effect on CYP1B1 (CYP1B1): inhibitory effects
Total urine volume over 24 h [1]: no significant difference
AUC(0-t) (in vivo [9]): 18600 ± 1980 ng·h/mL
CL renal (in vivo [9]): 0.333 mL/min/kg
clearance (in vivo [9]): 8.83 mL/min/kg
half-life (in vivo [9]): 9.6 ± 18 min
k el (in vivo [9]): 0.00127 s⁻¹
C0 (in vivo [9]; C0, administered compound intact in rat serum, IV Dox 10 mg/kg or equimolar DoxQ, mean ± SEM): ~108000 ng/mL
Vd (in vivo [9]; Vss, administered compound intact, IV Dox 10 mg/kg or equimolar DoxQ, mean ± SEM): 0.138 ± 0.015 L/kg
Toxicity to cardiomyocytes compared to Dox (human cardiomyocytes): less toxic; also recorded: less cardiotoxic than Dox
Cellular uptake compared to free Dox [10]: higher cellular uptake
Intact DoxQ in serum after oral dosing (PO DoxQ): not detected
Cumulative amount of NAG excreted in urine ([2]; 10 mg/kg): lower after IV DoxQ than Dox
Toxicity to cardiomyocytes compared to Dox (rat cardiomyocytes): less toxic; also recorded: less cardiotoxic than Dox
AUC of intact DoxQ relative to AUC of Dox after Dox ([3]; IV, equimolar doses): 5 fold
C0 / serum concentration of intact DoxQ relative to Dox after Dox ([3]; IV, equimolar doses): 4–5 fold and 5 fold
C0 [3, 12]: 108000 ± 26400 ng/mL
Clast [3, 12]: 1110 ± 170 ng/mL
fe, fraction excreted unchanged in urine [3, 13]: ~ 5% and 4.32 ± 1.005%
Vss ([3]; administered compound intact, IV Dox 10 mg/kg or equimolar DoxQ, mean ± SEM): 0.08 ± 0.015 L/kg
CLhepatic [3, 14]: 8.5 ± 1 mL/min/kg
Inhibition of CYP3A4 (CYP3A4): inhibited
cTnI concentrations in serum ([4]; 10 mg/kg): also had an increase in cTnI at each time point
AUEC of cTnI concentrations ([4]; 12–48 h after single IV 10 mg/kg Dox or equimolar DoxQ): lower than the AUEC after Dox
Release of Dox and quercetin from DoxQ [11]: controlled release of both Dox and quercetin released from DoxQ over four days

Source: publication PMC5620576 (Pharmaceutics, 2017)
